Measurements from patent publication US10336702B2, “Pharmaceutically active compounds” (BERGENBIO ASA, priority 2015, dated 2019).

Legend:
[1] = test system: TNBC cell line MDA-MB-231; experiment: 3D tumour cell growth in matrigel; assay type: cell-based; conditions: MDA-MB-231 in matrigel, increasing concentrations, 9 days, DMSO control
Experimental: MDA-MD-231 cells were treated with increasing concentrations of EX34 or EX33 for 9 days. Treatment was initiated one day after tumour cell seeding. DMSO was used as control. The graphs in FIG. 2 show average tumour size±SEM following treatment with each of EX34 and EX33. Images of the 3D cultures were batch analysed with AMIDA software.
In order to evaluate the role of Akt3 in tumour cell growth and invasion, the effect of two compounds of the invention, the compound of Example 34 (denoted hereafter as EX34) and the compound of Example 33 (denoted hereafter as EX33), on 3D growth in matrigel was assessed.
The TNBC cell line MDA-MB-231 was seeded in matrigel and the cell cultures were treated with increasing concentrations of EX34 or EX33 for 9 days. Treatment was initiated one day after tumour cell seeding. DMSO was used as control. The average tumour sphere size was then evaluated for each treatment. Representative pictures are shown in FIG. 1 for each of the indicated treatment conditions.
Images of the 3D cultures were batch analysed with AMIDA software to quantify the 3D tumour sphere size.

[2] = test system: MBBR3A human melanoma cancer cell line; experiment: MBBR3A human melanoma sub-cutaneous xenograft model; assay type: in vivo, Nude mice; conditions: 50 mg/kg b.i.d. oral gavage, 5-days on 2-days off, 15 days
Experimental: Tumour volumes of mice treated with vehicle or EX33 (50 mg/kg b.i.d.) were measured by caliper twice a week, over the course of 15 days. Data is given as Mean±SEM, n=10-12. Statistical analysis was performed by an unpaired two-tailed Student t test.
Nude mice were injected subcutaneously with MBBR3A cells, and the effect on tumour growth of EX33 was evaluated. EX33 was administered at 50 mg/kg EX33 given by oral gavage twice a day in a 5-days on and 2-days off cycle. Tumour growth was monitored by caliper measurements twice a week.
Data are given as Mean±SEM, n=10-12. Statistical analysis was performed by unpaired two-tailed Student t test.

[3] = test system: pAkt1, pAkt2 and pAkt3 in MCF10DCIS xenograft tumours; experiment: Akt phosphorylation in MCF10DCIS xenograft tumours (SureFire); assay type: in vivo, mice; conditions: 25 mg/kg oral gavage once a day for 2, 4 or 6 days; pAkt1, pAkt2, pAkt3 measured
Experimental: Mice carrying MCF10DCIS xenograft tumours were treated with Vehicle or EX33 at 25 mg/kg once a day for 2, 4 or 6 days. Tumours were harvested and analyzed by SureFire assay for levels of pAkt1, pAkt2 and pAkt3. Average±SEM are shown, n=4.
Nude mice were injected subcutaneously with MCF10DCIS cells. When the average tumour size reached 440 mm^3, EX33 was administered at 25 mg/kg for 2, 4 or 6 days. EX33 was given by oral gavage once a day. Tumours were harvested and analyzed by SureFire assay for levels of pAkt1, pAkt2 and pAkt3. Average±SEM are shown, n=4.

[4] = test system: NSCLC cell line H2086; experiment: EMT induction (Vimentin immune blotting) with TGF-β under hypoxia; assay type: cell-based; conditions: H2086 cells, 20 ng/ml TGF-β, 1% O2, 5 days, 1 μM compound
Experimental: EMT induction was evaluated by quantification of the EMT marker Vimentin. NSCLC H2086 cells were treated with 20 ng/ml TGF-β under hypoxic conditions (1% O2) for 5 days. The effect on Vimentin was evaluated by immune blotting for cells treated with Vehicle (DMSO), 1 μM EX33 or 1 μM EX34, and the results are shown in FIG. 7. Glyceraldehyde-3-phosphate dehydrogenase (GAPDH) was used as loading control. The band intensity of Vimentin has been related to the intensity of the GAPDH band.
NSCLC H2086 cells were treated with 20 ng/ml TGF-β under hypoxic conditions (1% O2) for 5 days to induce EMT. The ability of EX33 and EX34 to prevent EMT was evaluated by quantification of the EMT marker Vimentin. The effect on Vimentin was evaluated by immune blotting for cells treated with Vehicle (DMSO), 1 μM EX33 or 1 μM EX34. GAPDH was used as loading control. The band intensity of Vimentin has been related to the intensity of the GAPDH band.

[5] = test system: hepatic stellate cell line LX2; experiment: α-sma protein and mRNA levels in activated hepatic stellate cells; assay type: cell-based, human
Experimental: LX2 cells were treated for 72 hours with the indicated dosages of EX33 (μM). Cell lysates were analyzed by immune blotting for alpha-smooth muscle actin (α-SMA), PCNA and total p-Akt. Actin was used as a loading control.
LX2 cells were treated for 24 hours with the indicated dosages of EX33 (μM). mRNA was isolated and analyzed by RT-PCR for α-SMA expression. Expression level in Vehicle treated cells (0 EX33) was set to 1, and α-sma expression levels following treatment with indicated dosages of EX33 calculated relative to that.
Liver fibrosis is characterized by accumulation of extracellular matrix components such as alpha-smooth muscle actin (α-sma) mainly derived from activated hepatic stellate cells (HSCs).
The role of AKT3 in liver fibrosis was analyzed by studying the efficacy of EX33 to block HSC activation. The human activated hepatic stellate cell line LX2 was treated with different dosages of EX33 and the effects on α-sma protein and mRNA levels were analysed by immune blotting (see FIG. 9) and RT-PCR (see FIG. 10) respectively.

[6] = test system: Akt3 in MDA-MB-231 cells; experiment: Cellular (nuclear) localization of Akt3 by immune fluorescence microscopy; assay type: cell-based; conditions: 2 μM, 36 hours
Experimental: FIGS. 4 and 5 refer to the cellular localization of Akt3 in MDA-MB-231 cells that were treated for 36 hours with EX33 or EX34. In FIG. 4, cells were stained to visualize the nucleus (top left panel) and Akt3 (top right panel) and analyzed using immune fluorescence microscopy. […] The results were obtained using TissueQuest Software.
The cellular program of epithelial to mesenchymal transition (EMT) is utilized by tumour cells to develop drug resistance and to metastasize. Nuclear translocation of Akt3 is considered crucial for Akt3's ability to phosphorylate SNAIL and induce EMT.
MDA-MB-231 cells were treated for 36 hours with Vehicle (DMSO) or 2 μM EX34. Cells were stained to visualize the nucleus and Akt3. […] Mean intensity of Akt3 in the nucleus was evaluated after treatment with DMSO (control) or EX33 using TissueQuest Software (see FIG. 5).

[7] = test system: MDA-MB-468 cells; experiment: TNBC MDA-MB-468 subcutaneous xenograft model; assay type: in vivo, NSG mice; conditions: 50 mg/kg b.i.d. oral gavage, 5-days on 2-days off, 19 days
Experimental: Tumour volumes of mice treated with vehicle or EX33 (50 mg/kg b.i.d.) were measured by caliper twice a week, over the course of 19 days. Data is given as Mean±SEM, n=6-10. Statistical analysis was performed by an unpaired two-tailed Student t test.
The MDA-MB-468 model has previously been reported in the literature to be dependent upon Akt3 for xenograft tumour growth (Chin et al., Cancer Res 2014).
NSG mice were injected subcutaneously with MDA-MB-468 cells, and the effect on tumour growth of EX33 was evaluated. EX33 was administered at 50 mg/kg, and was given by oral gavage twice a day in a 5-days on and 2-days off cycle. Tumour growth was monitored by caliper measurements twice a week.
Data are given as Mean±SEM, n=6-10. Statistical analysis was performed by unpaired two-tailed Student t test.

[8] = test system: HMLER-Akt3 cells; experiment: HMLER-Akt3 tumour seeding xenograft model; assay type: in vivo, NSG mice; conditions: for tumour initiation: 100 mg/kg once a day from day of implantation; for Tumour incidence (tumours formed/total number of implantations): 100 mg/kg once a day, after 2 weeks, tumours exceeding 20 mm^3
Experimental: HMLER cells are not very tumourigenic. However, after enforced expression of Akt3, these cells are able to initiate tumours.
Mice implanted with 10^5 or 10^6 HMLER-Akt3 cells were treated with vehicle, EX34 or EX33 at 100 mg/kg once a day. Treatment was initiated on the day of tumour cell implantation. A total of 10 tumours were implanted for each treatment condition. Tumour incidence was evaluated after 2 weeks and tumour size cut of was set at 20 mm^3. Significance determined by unpaired Student two-tailed t test.
The numbers are given as tumours formed/total number of implantations. Significance was determined by unpaired two-tailed Student t-test. Ns: not significant.

[9] = test system: MDA-MB-231-D3H2LN/GPF-Luc cells; experiment: Invasive 3D tumour cell growth in matrigel; assay type: cell-based; conditions: 2 μM, 72 hours, fluorescence microscopy
Experimental: The TNBC aggressive cell line MDA-MB-231-D3H2LN/GPF-Luc was seeded in matrigel on cover slides to obtain invasive 3D tumour cell colonies. Cell cultures were treated for 72 hours with DMSO (control), 2 μM EX34 or 2 μM EX33, and colonies were evaluated by fluorescence microscopy for 3D invasive growth.

[10] = test system: NSCLC cell line H2073; experiment: Cell viability with paclitaxel (resazurin reduction) in paclitaxel-resistant cells; assay type: cell-based; conditions: paclitaxel with or without compound, 72 hours
Experimental: Cell viability was evaluated using resazurin reduction. Average±SEM are shown, n=3.
The NSCLC cell line H2073 was established from a patient that was resistant to treatment with paclitaxel.
H2073 cells were treated with increasing dosages of paclitaxel in the absence or presence of EX34 for 72 hours, and cell viability was evaluated using resazurin reduction. Average±SEM are shown, n=3.

[11] = 10^5 HMLER-Akt3 cells implanted
[12] = 10^6 HMLER-Akt3 cells implanted

For CC(=O)N(C)[C@H]1CC[C@H](CC(=O)Nc2cc(-c3ccccc3)c(-c3ccc(C4(N)CCC4)cc3)cn2)CC1 [EX33], the “3D tumour cell growth (average tumour sphere size)” value [1] was “dose-dependent inhibition of 3D tumour cell growth”, the “primary tumour growth (tumour volume)” value [2] was “reduced tumour growth compared to vehicle treated mice” and the “level of Akt3 phosphorylation in xenograft tumours” value [3] was “selectively reduced the level of Akt3 phosphorylation”. The “EMT induction (EMT marker Vimentin)” value [4] was “prevent EMT induction”, the “α-sma mRNA level” value ([5]; 24 hours, RT-PCR) was “decreases the levels of α-sma mRNA and protein” and the α-sma protein level ([5]; 72 hours, immune blotting) was “decreases the levels of α-sma mRNA and protein”. The “nuclear localization of Akt3” value [6] was “Akt3 stains cytoplasmic”, the “primary tumour growth (tumour volume)” value [7] was “reduced tumour growth compared to vehicle treated mice” and the tumour initiation [8] was “prevented tumour initiation”. For the same molecule, the “Tumour incidence (tumours formed/total number of implantations)” value [8, 11] was 0/10^<0.0001, the “Tumour incidence (tumours formed/total number of implantations)” value [8, 12] was 0/10^<0.0001 and the “invasive 3D tumour cell growth” value [9] was “inhibited tumour cell growth”.

In the case of COC(=O)N(C)[C@H]1CC[C@H](CC(=O)Nc2cnc(-c3ccc(C(C)(C)N)cc3)c(-c3ccccc3)c2)CC1 [EX34], the “sensitivity to paclitaxel (cell viability)” value [10] is reported as “sensitizes the paclitaxel resistant cell line H2073 to paclitaxel”, the “3D tumour cell growth (average tumour sphere size)” value [1] is reported as “dose-dependent inhibition of 3D tumour cell growth” and the “EMT induction (EMT marker Vimentin)” value [4] is reported as “prevent EMT induction”. The “nuclear localization of Akt3” value [6] was “prevents nuclear localization of Akt3”, the tumour initiation [8] was “prevented tumour initiation” and the “Tumour incidence (tumours formed/total number of implantations)” value [8, 11] was 3/10^ns. The “Tumour incidence (tumours formed/total number of implantations)” value [8, 12] was 0/10^0.0002 and the “invasive 3D tumour cell growth” value [9] was “inhibited tumour cell growth”.
